Test results taken from US20070128217A1 (priority 2003, published 2007).

Legend:
[1] = test system: antibodies in sera from SARS patients (sera 1a, 1b, 2, 6, 37, 62, London, SARS-yellow, SARS-green); assay type: binding, human; set-up: Binding of serum 6 to linear peptides of protein X1 of SARS-CoV Urbani / Binding of serum 37 to linear peptides of protein X1 of SARS-CoV Urbani / Binding of serum 6 to looped/cyclic peptide (PEPSCAN-ELISA) / Binding of serum 37 to looped/cyclic peptide (PEPSCAN-ELISA) / Binding of serum 37 to looped/cyclic peptides of protein X1 of SARS-CoV Urbani / Binding of serum 6 to linear peptides of protein X2 / Binding of serum 37 to linear peptides of protein X2 / Binding of serum 37 to looped/cyclic peptides of protein X2 of SARS-CoV Urbani / Binding of serum 6 to linear peptides of protein M of SARS-CoV Urbani / Binding of serum 37 to linear peptides of protein M of SARS-CoV Urbani / Binding of serum 6 to looped/cyclic peptides of protein M of SARS-CoV Urbani / Binding of serum 37 to looped/cyclic peptides of protein M of SARS-CoV Urbani / Binding of serum 6 to linear peptides of protein X3 of SARS-CoV Urbani / Binding of serum 37 to linear peptides of protein X3 of SARS-CoV Urbani / Binding of serum 37 to looped/cyclic peptides of protein X3 of SARS-CoV Urbani / Binding of serum 6 to linear peptides of protein X4 of SARS-CoV Urbani / Binding of serum 37 to linear peptides of protein X4 of SARS-CoV Urbani / Binding of serum 37 to looped/cyclic peptides of protein X4 of SARS-CoV Urbani / Binding of serum 6 to linear peptides of protein X5 of SARS-CoV Urbani / Binding of serum 37 to linear peptides of protein X5 of SARS-CoV Urbani / Binding of serum 37 to looped/cyclic peptides of protein X5 of SARS-CoV Urbani / Binding of serum 6 to linear peptides of protein N of SARS-CoV Urbani / Binding of serum 37 to linear peptides of protein N of SARS-CoV Urbani / Binding of serum 6 to linear peptide (PEPSCAN-ELISA) / Binding of serum 1a to looped/cyclic peptides of protein N of SARS-CoV Urbani / Binding of serum 1b to looped/cyclic peptides of protein N of SARS-CoV Urbani / Binding of serum 2 to looped/cyclic peptides of protein N of SARS-CoV Urbani / Binding of serum 6 to looped/cyclic peptides of protein N of SARS-CoV Urbani / Binding of serum 37 to looped/cyclic peptides of protein N of SARS-CoV Urbani / Binding of serum 62 to looped/cyclic peptides of protein N of SARS-CoV Urbani / Binding of serum London to looped/cyclic peptides of protein N of SARS-CoV Urbani / Binding of serum SARS-green to looped/cyclic peptides of protein N of SARS-CoV Urbani: unit not given here
[2] = test system: control sera (pooled serum of ten healthy LUMC hospital workers; commercial negative donor pooled serum from the Dutch bloodbank); assay type: binding, human; set-up: Binding of Control serum LUMC to linear peptides / Binding of Control serum Blood-bank to linear peptides / Binding of Control serum LUMC to looped peptides / Binding of Control Serum Blood-Bank to Looped peptides / Binding of Control serum LUMC to linear peptides of the protein M of SARS-CoV Urbani / Binding of Control serum Blood-bank to linear peptides of the protein M of SARS-CoV Urbani / Binding of Control serum LUMC to looped peptides of the protein M of SARS-CoV Urbani / Binding of Control Serum Blood-Bank to Looped peptides of the protein M of SARS-CoV Urbani: unit not given here
[3] = test system: rabbit serum obtained by immunizing a rabbit with the SARS-CoV strain Frankfurt 1; assay type: binding; set-up: Binding of a rabbit serum to linear peptides / Binding of a rabbit serum to looped peptides / Rabbit serum linear peptides / Rabbit serum looped peptides / Binding of a rabbit serum to linear peptides of protein N of SARS-CoV Urbani (Rabbit serum linear peptides) / Binding of a rabbit serum to looped/cyclic peptides of protein N of SARS-CoV Urbani (Rabbit serum looped peptides): unit not given here

GMEAQFLYLYALIYF was tested, and the “Binding of serum 1a to linear peptides of protein X1 of SARS-CoV Urbani” value [1] was 0.8, the “Binding of serum 1a to looped/cyclic peptide (PEPSCAN-ELISA)” value [1] was 0.6 and the “Binding of serum 1b to linear peptides of protein X1 of SARS-CoV Urbani” value [1] was 0.6. For the same sequence, the “Binding of serum 1b to looped/cyclic peptide (PEPSCAN-ELISA)” value [1] was 0.4, the “Binding of serum 2 to linear peptides of protein X1 of SARS-CoV Urbani” value [1] was 0.6 and the “Binding of serum 2 to looped/cyclic peptide (PEPSCAN-ELISA)” value [1] was 0.5. For the same sequence, the “Binding of serum 6 to linear peptides of protein X1 of SARS-CoV Urbani” value [1] was 0.5, the “Binding of serum 6 to looped/cyclic peptide (PEPSCAN-ELISA)” value [1] was 0.3 and the “Binding of serum 37 to linear peptides of protein X1 of SARS-CoV Urbani” value [1] was 0.5. The “Binding of serum 37 to looped/cyclic peptide (PEPSCAN-ELISA)” value [1] was 0.4, the “Binding of serum 62 to linear peptides of protein X1 of SARS-CoV Urbani” value [1] was 0.4 and the “Binding of serum 62 to looped/cyclic peptide (PEPSCAN-ELISA)” value [1] was 0.5. The “Binding of serum London to linear peptides of protein X1 of SARS-CoV Urbani” value [1] was 0.2, the “Binding of serum London to looped/cyclic peptide (PEPSCAN-ELISA)” value [1] was 0.2 and the “Binding of serum SARS-green to linear peptides of protein X1 of SARS-CoV Urbani” value [1] was 0.1. For the same sequence, the “Binding of serum SARS-green to looped/cyclic peptide (PEPSCAN-ELISA)” value [1] was 0.3, the “Binding of serum SARS-yellow to linear peptides of protein X1 of SARS-CoV Urbani” value [1] was 0.3 and the “Binding of serum SARS-yellow to looped/cyclic peptide (PEPSCAN-ELISA)” value [1] was 0.4. The “Binding of Control Serum Blood-Bank to Looped peptides” value [2] was 0.5, the “Binding of Control serum Blood-bank to linear peptides” value [2] was 0.4 and the “Binding of Control serum LUMC to linear peptides” value [2] was 0.6. For the same sequence, the “Binding of Control serum LUMC to looped peptides” value [2] was 0.8, the “Binding of a rabbit serum to linear peptides” value [3] was 0.1 and the “Binding of a rabbit serum to looped peptides” value [3] was 0.6.

In the case of GTIVTRPLMESELVI, the “Binding of serum 1a to linear peptides of protein M of SARS-CoV Urbani” value [1] is reported as 0.8, the “Binding of serum 1b to linear peptides of protein M of SARS-CoV Urbani” value [1] is reported as 0.7 and the “Binding of serum 2 to linear peptides of protein M of SARS-CoV Urbani” value [1] is reported as 0.7. The “Binding of serum 6 to linear peptides of protein M of SARS-CoV Urbani” value [1] was 0.5, the “Binding of serum 37 to linear peptides of protein M of SARS-CoV Urbani” value [1] was 0.6 and the “Binding of serum 62 to linear peptides of protein M of SARS-CoV Urbani” value [1] was 0.7. The “Binding of serum London to linear peptides of protein M of SARS-CoV Urbani” value [1] was 0.3, the “Binding of serum SARS-green to linear peptides of protein M of SARS-CoV Urbani” value [1] was 0.7 and the “Binding of serum SARS-yellow to linear peptides of protein M of SARS-CoV Urbani” value [1] was 0.2. For the same sequence, the “Recognition of the peptide by sera of SARS-CoV infected individuals, and form (linear, looped/cyclic) in which it is recognized” value [1] was “recognized in looped/cyclic form”, the “Binding of Control Serum Blood-Bank to Looped peptides of the protein M of SARS-CoV Urbani” value [2] was 0.8 and the “Binding of Control serum Blood-bank to linear peptides of the protein M of SARS-CoV Urbani” value [2] was 0.7. For the same sequence, the “Binding of Control serum LUMC to linear peptides of the protein M of SARS-CoV Urbani” value [2] was 0.6, the “Binding of Control serum LUMC to looped peptides of the protein M of SARS-CoV Urbani” value [2] was 1.0 and the “Rabbit serum linear peptides” value [3] was 0.1. The “Rabbit serum looped peptides” value [3] was 0.5.

With GTRHTYQLRARSVSP the “Binding of serum 1a to linear peptides of protein X4 of SARS-CoV Urbani” value [1] was 0.7, the “Binding of serum 1a to looped/cyclic peptides of protein X4 of SARS-CoV Urbani” value [1] was 0.8 and the “Binding of serum 1b to linear peptides of protein X4 of SARS-CoV Urbani” value [1] was 0.6. The “Binding of serum 1b to looped/cyclic peptides of protein X4 of SARS-CoV Urbani” value [1] was 0.5, the “Binding of serum 2 to linear peptides of protein X4 of SARS-CoV Urbani” value [1] was 0.8 and the “Binding of serum 2 to looped/cyclic peptides of protein X4 of SARS-CoV Urbani” value [1] was 1.0. For the same sequence, the “Binding of serum 6 to linear peptides of protein X4 of SARS-CoV Urbani” value [1] was 0.6, the “Binding of serum 6 to looped/cyclic peptides of protein X4 of SARS-CoV Urbani” value [1] was 0.6 and the “Binding of serum 37 to linear peptides of protein X4 of SARS-CoV Urbani” value [1] was 0.8. For the same sequence, the “Binding of serum 37 to looped/cyclic peptides of protein X4 of SARS-CoV Urbani” value [1] was 0.7, the “Binding of serum 62 to linear peptides of protein X4 of SARS-CoV Urbani” value [1] was 0.8 and the “Binding of serum 62 to looped/cyclic peptides of protein X4 of SARS-CoV Urbani” value [1] was 0.8. For the same sequence, the “Binding of serum London to linear peptides of protein X4 of SARS-CoV Urbani” value [1] was 0.8, the “Binding of serum London to looped/cyclic peptides of protein X4 of SARS-CoV Urbani” value [1] was 0.3 and the “Binding of serum SARS-green to linear peptides of protein X4 of SARS-CoV Urbani” value [1] was 0.6. The “Binding of serum SARS-green to looped/cyclic peptides of protein X4 of SARS-CoV Urbani” value [1] was 0.5, the “Binding of serum SARS-yellow to linear peptides of protein X4 of SARS-CoV Urbani” value [1] was 0.8 and the “Binding of serum SARS-yellow to looped/cyclic peptides of protein X4 of SARS-CoV Urbani” value [1] was 0.7. For the same sequence, the “Binding of Control Serum Blood-Bank to Looped peptides” value [2] was 0.7, the “Binding of Control serum Blood-bank to linear peptides” value [2] was 0.8 and the “Binding of Control serum LUMC to linear peptides” value [2] was 0.6. For the same sequence, the “Binding of Control serum LUMC to looped peptides” value [2] was 0.8 and the “Recognition of the peptide by the rabbit serum” value [3] was “recognized”.
